This note sets out measurements from patent publication US9115061B2, “Naphthalene-based inhibitors of anti-apoptotic proteins” (BURNHAM INSTITUTE FOR MEDICAL RESEARCH, priority 2007, dated 2015).

The structures appear in SMILES notation.

The target in one test is BIR3 domain of XIAP (Homo sapiens (Human), UniProt P98170). As to the kind of experiment: Reactivity test by [15N,1H]-correlation NMR. Conditions: 1 mM gossypol, 200 μM BIR3, two hours. As for the experimental part: Pure polyphenols were obtained from SIGMA (gossypol and purpurogallin) and/or from Microsource Discovery Systems (Purpurogallin derivatives). Reference compounds were obtained from Chembridge Corp. (San Diego). Gossypol was tested as a racemic mixture of (+) and (−) isomers. Compounds were dissolved in DMSO at 100 mM concentration and stored at −20 DC. NMR analysis was periodically performed on the compounds as a quality control, prior to further dilution for binding and displacement assays.
Sequence of BIR3 domain of XIAP (P98170 241-356): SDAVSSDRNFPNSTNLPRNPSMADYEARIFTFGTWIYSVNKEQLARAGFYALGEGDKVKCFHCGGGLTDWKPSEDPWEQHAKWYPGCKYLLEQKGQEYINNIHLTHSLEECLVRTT

The test system of the next test is 380 cell line. As to the kind of experiment: Apoptosis induction in NHL B-cell lines, Annexin V-FITC/PI. The test is classed as cell-based. Particulars: 48 hours, relative to DOHH2 and RS11846. As for the experimental part: (§1) After 48 hours of incubation, % viability was determined by FACSort after staining cells by the use of an Annexin V-FITC/PI Apoptosis Detection kit (BioVision Inc.). Viable cells were defined by Annexin V-negative, PI-negative cells.

A further test relates to DOHH2 cell line. Described as above. The test is classed as cell-based. Conditions: 48 hours; read-out: IC50, % viability DOHH2. The method, then:
as §1

Test [1] concerns RS11846 cell line. The description is as above. Format: cell-based. Conditions: 48 hours; read-out: IC50, % viability RS11846. As for the experimental part: as §1
The subject of the next test is PC3ML cells. Nature of the test: Cell viability, ATP-LITE assay. Particulars: 72 hours, ATP-LITE. Format: cell-based, human. The essentials: (§2)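 Human cancer lines were seeded at 2000 (H460, H1299), 3000 (PC3) or 10,000 (RS11846) cells/well in F12 or RPMI1640 with 5% FBS. Compounds were added in 0.1% DMSO 24 h after seeding. Viability was read by ATP-LITE luminescence after 72 h and normalized to DMSO controls.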

The test system of the next test is H460 cell line. Nature of the test: Cell viability, ATP-LITE assay. Particulars: 72 hours, ATP-LITE. Format: cell-based, human. In outline: as §2
The next test relates to H1299 cell line. Nature of the test: Cell viability, ATP-LITE assay. The test is classed as cell-based, human. Particulars: 72 hours. The essentials: as §2
Test [2] relates to RS11846 cell line. Nature of the test: Cell viability, ATP-LITE assay. The test is classed as cell-based, human. Conditions: 72 hours. The essentials: as §2
Test [3] relates to RS11846 cell line. As to the kind of experiment: Apoptosis, Annexin V and propidium iodide assay. Format: cell-based, human. Particulars: 1-2 days; read-out: RS11846 EC50 (Annexin V- and propidium iodide assay).
Procedure: The apoptotic activity of the compounds against RS11846 cells was assessed by staining with Annexin V- and propidium iodide (PI). Lymphoma cell line, RS11846, was cultured in RPMI 1640 medium (Mediatech Inc., Herndon, Va. 20171) containing 10% fetal bovine serum (Mediatech Inc., Herndon, Va. 20171) and Penicillin/Streptomycin (Mediatech Inc., Herndon, Va. 20171). […] The percentage of viable cells was determined by FITC-Annexin V- and propidium iodide (PI)-labeling, using an Apoptosis Detection kit (BioVision Inc.), and analyzing stained cells by flow cytometry (FACSort; Bectin-Dickinson, Inc.; Mountain View, Calif.). Cells that were annexin-V-negative and PI-negative were considered viable.
The subject of the next test is MCF7 cells. Nature of the test: XTT dye reduction assay. The test is classed as cell-based, human. Conditions: three days, read-out: IC50, cell viability MCF7. As for the experimental part:
(§3) The effects of the compounds on viability of tumor cells in culture were monitored by using XTT assays with MCF7 and ZR75-1 cell lines. MCF7 cells were grown in DMEM containing 10% fetal bovine serum, penicillin/streptomycin, supplemented with 10^−10 M insulin, 1 mM sodium pyruvate and glutamine. ZR75-1 cells were grown in RPMI containing 10% fetal bovine serum, penicillin/streptomycin, supplemented with HEPES buffer, 1 mM sodium pyruvate and glutamine. Cells were regularly tested for mycoplasma contamination. Cells were seeded triplicates at an initial cell density of 1,000 cells per well. Blank wells received no cells.
(§4) Relative numbers of viable cells was determined by XTT assay. Briefly, in a 96-well plate, we added 50 μl of a mixture of 1 mg/ml of XTT (2,3-bis(2-methoxy-4-nitro-5-sulfophenyl)-5-[(phenylamino)carbonyl]-2H-tetrazolium hydroxide) (Polysciences, Washington, Pa.) containing 0.025 mM PMS (phenazine methosulfate) to each well. The 96-well plates were reincubated for an additional 4 hours to allow for XTT formazan production. Then, the contents of each plate were mixed and optical densities were determined at a wavelength of 450 nm (OD450). Net OD450 was determined after subtracting OD450 of blank wells. Low-passage HeLa cells (between passage number 10 and 20) were transfected with pcDNA3-BCL-XL or control pcDNA3 plasmids using Lipofectamine Plus reagent (Invitrogen) and selected in medium containing 800 μg/ml of G418. Immunoblot analysis of BCL-XL was accomplished as previously described.
(Tetrazolium dyes change colour on reduction, which living cells bring about.)

Another test has as its system ZR75-1 cells. As to the kind of experiment: XTT dye reduction assay. The test is classed as cell-based, human. Conditions: three days, read-out: IC50, cell viability ZR75-1. As for the experimental part:
as §3, §4

Test [4] has as its system murine B-cells from BCL-2 transgenic mice. As to the kind of experiment: Viability of cultured splenocytes, Annexin V-FITC/PI. The test is classed as cell-based. Particulars: 18 hours; read-out: IC50, induction of apoptosis in cultured B-cells of BCL-2 transgenic mouse. The method, then:
Spleens were excised from sacrificed mice and cell suspensions treated with a mouse erythrocyte lysing kit (R & D Systems). Total splenocyte count was determined by typan blue dye exclusion assays using hemocytometers. The percentage of B-lymphocytes was determined by fluorescence activated cell sorter (FACS) analysis SACS-CANTO, Bectin-Dickinson Inc., Mountain View, Calif.) following staining cells with Phyco-Erytrin (PE)-conjugated anti-CD19 or -B220 antibodies (Becton Dickinson, San Jose, Calif. 95131).
After 18 hours of incubation, % viability of splenocytes was determined by FACSort after staining cells by the use of an Annexin V-FITC/PI Apoptosis Detection kit (BioVision Inc.). Viable cells were defined by Annexin V-negative, PI-negative cells.

In another test the target is BCL-XL (Homo sapiens (Human), UniProt Q07817). As to the kind of experiment: 1D 1H-NMR binding assay. Note: key: +++: Very Active; ++: Active; +: Mild; −: Weak. Conditions: 4-point-rating scale; compounds 200 μM, BCL-XL 25 μM. The method, then:
By observing the aliphatic region of the spectra, binding could be readily detected due to chemical shift changes in active site methyl groups of Ile, Leu, Thr, Val or Ala (region between −0.8 and 0.3 ppm). All experiments were performed with a 600 MHz spectrometer Bruker Avance 600 equipped with four rf channels and z-axis pulse-field gradients.

Sequence of BCL-XL (Q07817 whole entry): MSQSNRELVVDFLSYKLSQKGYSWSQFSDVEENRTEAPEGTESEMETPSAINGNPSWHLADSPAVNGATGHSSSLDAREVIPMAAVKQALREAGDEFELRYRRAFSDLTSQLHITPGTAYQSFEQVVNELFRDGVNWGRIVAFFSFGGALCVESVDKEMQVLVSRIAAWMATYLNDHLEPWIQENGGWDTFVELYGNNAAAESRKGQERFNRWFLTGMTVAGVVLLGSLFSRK

In general, IC50 refers to the concentration at which inhibition is half-maximal. As usually defined, the EC50 is the midpoint of the concentration-response curve. `Cc1cc2c(C(C)C)c(O)c(O)c(C=O)c2c(O)c1-c1c(C)cc2c(C(C)C)c(O)c(O)c(C=O)c2c1O` [Gossypol, gossypol]: on BIR3 domain of XIAP, the “reactivity with 15N-labeled BIR3, spectrum versus apo-Bir3” value is listed as “No appreciable differences”. Further, the “sensitivity of 380 cell line” value in the test with 380 cell line is given as “slightly more resistant”. The IC50 is approximately 3 µM with DOHH2 cell line; approximately 3 µM in the test with RS11846 cell line [1]; 13.2 µM in the test with MCF7 cells; 8.4 µM with ZR75-1 cells; approximately 10 µM in test [4]. The EC50 worked out at 3.1 µM in the test on PC3ML cells; 3 µM in the test on H460 cell line; 6 µM in the test on H1299 cell line; 2.2 µM with RS11846 cell line [2]; 4.23 µM in the test on RS11846 cell line [3]. Moreover, the “1D 1H-NMR Binding Assay (BCL-XL)” value at BCL-XL is given as “++”.
